# Target: T1, SC6 (GlyT-2 transporter) (Homo sapiens, UniProt Q9Y345)
# T1 sequence (Q9Y345 1-797 F124S/A162G/Q184R/D463N/I735T/V751A): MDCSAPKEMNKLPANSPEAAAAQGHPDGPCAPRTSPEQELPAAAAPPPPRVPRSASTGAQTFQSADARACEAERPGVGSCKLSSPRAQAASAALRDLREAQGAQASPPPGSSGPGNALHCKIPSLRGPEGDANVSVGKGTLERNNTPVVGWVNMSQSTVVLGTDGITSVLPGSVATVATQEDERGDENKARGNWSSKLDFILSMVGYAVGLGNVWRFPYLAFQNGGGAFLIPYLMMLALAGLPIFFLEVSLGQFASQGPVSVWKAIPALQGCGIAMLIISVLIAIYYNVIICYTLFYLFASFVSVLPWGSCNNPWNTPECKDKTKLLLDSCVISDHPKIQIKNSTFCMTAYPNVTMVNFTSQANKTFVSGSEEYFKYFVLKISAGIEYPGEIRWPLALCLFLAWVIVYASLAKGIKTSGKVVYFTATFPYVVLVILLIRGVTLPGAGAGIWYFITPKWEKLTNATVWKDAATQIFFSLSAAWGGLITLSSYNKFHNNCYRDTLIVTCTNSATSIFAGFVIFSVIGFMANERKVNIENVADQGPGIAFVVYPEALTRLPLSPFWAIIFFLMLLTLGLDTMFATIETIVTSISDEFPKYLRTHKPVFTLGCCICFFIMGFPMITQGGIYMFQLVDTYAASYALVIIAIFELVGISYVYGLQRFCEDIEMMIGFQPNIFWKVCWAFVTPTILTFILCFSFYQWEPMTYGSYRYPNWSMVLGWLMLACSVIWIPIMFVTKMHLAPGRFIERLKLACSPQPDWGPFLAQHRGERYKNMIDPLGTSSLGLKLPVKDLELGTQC
# Experiment: [3H]-glycine uptake assay in HEK-293 cells transiently transfected with SC6
# Conditions: 1 mM test substance, 1 μM [3H]-glycine, alanine (5 mM) present, HEK-293 cells transfected with SC6, 37° C.
row,SMILES,effect on [3H]-glycine uptake
1,NCC(=O)O [glycine],almost totally blocked
2,CNCC(=O)O [sarcosine],not significantly affected
